Reference: PubChem BioAssay (NCI)
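All cell lines were grown in 96-well plates and treated with compound for 48 hours. GI50: concentration for 50% inhibition of growth. TGI: total growth inhibition.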

Tested on: MDA-MB-468 breast
Assay: NCI-60 cell line screen, 48 h

With `COc1ccc2c(c1)nc(N)c1c3cccnc3cn21` the GI50 was 0.294 µM and the TGI was 3.45 µM.
With `CC1=CC(=O)C(C(C)=Nc2ccccc2Cl)C(=O)O1` (stereo not given) the GI50 was > 100 µM and the TGI was > 100 µM.
`COC1CCN(Cc2ccc3c(NNC(=O)c4cnccn4)nc4cc(F)ccc4n23)C1` (stereo not given) was tested, and the GI50 was 0.916 µM and the TGI was 4.27 µM.
In the case of `COC(=O)[C@@H]1CCCN1C(=O)[C@@H]1CCCN1C(=O)[C@@H](Cc1c[nH]c2ccccc12)NC(=S)Nc1cc(C(F)(F)F)cc(C(F)(F)F)c1`, the GI50 is reported as 2.05 µM and the TGI is reported as 7.02 µM.
Work on `O=C(NN1C(=O)CSC1c1ccc(Cl)cc1)c1[nH]c2ccc(F)cc2c1-c1ccccc1` (stereo not given) yielded a GI50 of 8.04 µM and a TGI of 25.1 µM.
`CCc1c[nH]c2ncnc(N3CC[C@@](N)(CNC(=O)c4ccc(F)cc4F)C3)c12` was tested, and the GI50 was 15 µM and the TGI was 63.7 µM.
`Cn1cc(-c2cc(N)n3nc(-c4cn(C)c5ccc(F)cc45)cc3n2)c2cc(F)ccc21` was tested, and the GI50 was 1.59 µM and the TGI was 3.45 µM.
`Cn1cc(-c2ccc(CNc3cc(-c4cnc5cc(OCCCN6CCCC6)ccn45)ncn3)cc2)cn1` was tested, and the GI50 was 1.66 µM and the TGI was 3.21 µM.
`CCN1C(=O)N(CC)C2C1NN=c1s/c(=C3\C(=O)N(C)c4ccccc43)c(=O)n12` (stereo not given) gave a GI50 of 0.354 µM and a TGI of 6.01 µM.
Compound `COc1cc(/C=C(/c2ccccc2)[N+](=O)[O-])c(OC)c2c1OCO2` has a GI50 of 1.33 µM and a TGI of 2.73 µM.
